Several values for one entry are separate records, joined by “and”; a condition that tells them apart may be missing. Identical values can stand only once. Like-named read-outs stand apart in the source and are kept apart here.
Key:
human D3R [1] = molecular target: T1, human D3R (Homo sapiens, UniProt P35462); set-up: host or cells: CHO-K1; method as in PMID 30883109; conditions: previously reported, cited from earlier work
human D2R long isoform [2] = molecular target: T2, human D2R long isoform (Homo sapiens, UniProt P14416); set-up: host or cells: CHO-K1; method as in PMID 30883109; conditions: antagonist mode; previously reported; cited from earlier work
human D4R [3] = molecular target: T3, human D4R (Homo sapiens, UniProt P21917); set-up: host or cells: CHO-K1; method as in PMID 30883109; conditions: previously reported, cited from earlier work; for D4R Emax (%): agonist mode; for D4R Ant. (%): antagonist mode
T3 sequence (P21917 1-419): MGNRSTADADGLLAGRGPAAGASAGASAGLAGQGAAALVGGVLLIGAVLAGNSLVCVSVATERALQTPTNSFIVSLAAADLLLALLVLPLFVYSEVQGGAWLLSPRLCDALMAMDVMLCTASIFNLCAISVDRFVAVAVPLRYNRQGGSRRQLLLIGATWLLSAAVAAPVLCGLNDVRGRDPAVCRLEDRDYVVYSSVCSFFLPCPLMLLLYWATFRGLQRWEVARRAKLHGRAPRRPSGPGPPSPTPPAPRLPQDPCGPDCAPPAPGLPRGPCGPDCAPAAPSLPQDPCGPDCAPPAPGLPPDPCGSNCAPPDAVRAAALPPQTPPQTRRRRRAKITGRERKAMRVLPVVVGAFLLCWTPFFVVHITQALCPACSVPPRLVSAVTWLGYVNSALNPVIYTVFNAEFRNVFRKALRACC

[4] = Phase I metabolic stability in rat liver microsomes (with NADPH); format: in vitro ADME; conditions: pH 7.4, presence of NADPH, mean ± SD, n = 3
Method: (§1) We evaluated the Phase I metabolic stability of compounds 2−7 and 14−19 using rat and human liver microsomes, as previously described.[45]
(§2) Phase I metabolic stability assays were conducted using rat and human liver microsomes as previously described[45],[70] with minor modifications. In brief, the reactions were carried out with 100 mM potassium phosphate buffer, pH 7.4, in the presence of NADPH regenerating system (1.3 mM NADPH, 3.3 mM glucose 6-phosphate, 3.3 mM MgCl2, 0.4 U/mL glucose-6-phosphate dehydrogenase, 50 μM sodium citrate). Negative controls without cofactors were assessed to determine the non-CYP-mediated metabolism. Compound disappearance was monitored over time using a liquid chromatography and tandem mass spectrometry (LC/MS) method. All reactions were performed in triplicate.
(§3) Chromatographic analysis was performed on a Dionex ultra high-performance LC system coupled with Q Exactive Focus orbitrap mass spectrometer (Thermo Fisher Scientific Inc., Waltham MA). Separation was achieved using Agilent Eclipse Plus column (100 × 2.1 mm^2 i.d.; maintained at 35 °C) packed with a 1.8 μm C18 stationary phase. […] The total run time for each analyte was 6.5 min. Pumps were operated at a flow rate of 0.3 mL/min. The mass spectrometer controlled by Xcalibur software 4.0.27.13 (Thermo Scientific) was operated with a HESI ion source in positive ionization mode. Compounds were identified in the full-scan mode (from m/z 50 to 750) by comparing t = 0 samples with t = 30 min and t = 60 min samples.

human D4R [5] = molecular target: T3, human D4R; conditions: for D4R Ant. (%): cAMP, antagonist mode, 10 μM forskolin and 10 nM dopamine, normalized to spiperone; for Emax: read-out: D4R Emax (%)
[6] = Phase I metabolic stability in human liver microsomes (with NADPH); format: in vitro ADME; conditions: pH 7.4, presence of NADPH, mean ± SD, n = 3
Method: as §1, §2, §3

human D3R [7] = molecular target: T1, human D3R; experiment: DiscoverX PathHunter β-arrestin recruitment assay, D3R
D5 = molecular target: T4, D5 (Homo sapiens, UniProt P21918); experiment: PDSP primary screen, D5; format: binding; conditions: 10 µM compound
T4 construct: Psychoactive Drug Screening Program (PDSP)
From the text: (§4) Receptor Primary Secondary Primary Secondary Primary Secondary Primary Secondary screen assay screen assay screen assay screen assay […]
(§5) inhibition in primary assessment.

human D4R [8] = molecular target: T3, human D4R; experiment: DiscoverX PathHunter β-arrestin recruitment assay, D4R
D1 = molecular target: T5, D1 (Homo sapiens, UniProt P21728); experiment: PDSP primary screen and secondary assay, D1; format: binding; conditions: 10 µM compound
T5 construct: Psychoactive Drug Screening Program (PDSP)
From the text: as §4, §5

[9] = Pharmacokinetics study in rats (plasma and brain); format: in vivo, Sprague−Dawley rats; conditions: rat, 5 mg/kg IP
Method: Given their adequate in vitro stability profiles, we next evaluated the in vivo pharmacokinetic profiles of 14, 15, 17, and 18 in rats. Sprague−Dawley rats were dosed with 5 mg/kg (14, 15, 17) or 10 mg/kg (18), i.p., and plasma and brain levels of each drug were measured 0−6 h postdose.
All animal experiments were performed following the protocols evaluated and approved by the Animal Care and Use Committee at Johns Hopkins University (Ethics Approval Number: RA24M403). Pharmacokinetic studies in Sprague−Dawley (SD) rats were conducted according to protocols approved. SD rats obtained from Harlan were maintained on a 12 h light−dark cycle with ad libitum access to food and water. Test compound was administered via i.p. injection at a dose of 10 mg/kg (100% saline vehicle, 10 mL/kg volume). The rats were sacrificed at specified time points (0.25, 0.5 h, 1, 2, 4, and 6 h) post drug administration. For the collection of plasma and brain tissue, animals were euthanized with CO2, and blood samples were collected in heparinized microtubes by cardiac puncture. Brains were dissected and immediately flash-frozen (−80 °C). Blood samples were spun at 2000g for 15 min, and plasma was removed and stored at −80 °C until analysis (as described below).
Quantitation of triazole analogs 14, 15, 17, and 18 was performed using liquid chromatography with tandem mass spectrometry (LC/MS-MS) methods. Briefly, calibration standards were prepared using respective tissue (naïve plasma and brain) with additions of the test compounds. For quantifying the test compounds in the pharmacokinetic samples, plasma samples (20 μL) were processed using a single liquid extraction method by addition of 100 μL of acetonitrile containing internal standard (losartan: 0.5 μM), followed by vortex-mixing for 30 s and then centrifugation at 10,000g for 10 min at 4 °C. Brain tissues were diluted 1:5 w/v with acetonitrile containing losartan (0.5 μm) and homogenized, followed by vortex-mixing and centrifugation at 10,000g for 10 min at 4 °C. A 50 μL aliquot of the supernatant was diluted with 50 μL of water and transferred to 250 μL polypropylene autosampler vials sealed with Teflon caps. Two μL of the sample was injected into the LC/MS/MS system for analysis. Chromatographic analysis was performed using an Accela ultra high-performance system consisting of an analytical pump and an autosampler coupled with a TSQ Vantage mass spectrometer. […] The mobile phase consisted of 0.1% formic acid in acetonitrile and 0.1% formic acid in water with gradient elution, starting with 10% organic phase (from 0 to 1 min) linearly increasing to 95% (from 1 to 2 min), and re-equilibrating to 10% by 3 min. The total run time for each analyte was 3.5 min. Pumps were operated at a flow rate of 0.4 mL/min. […] Plasma concentrations (nmol/mL) as well as brain tissue concentrations (nmol/g) were determined and plots of mean plasma concentration versus time were constructed. Noncompartmental analysis modules in Phoenix WinNonlin version 7.0 (Certara USA, Inc., Princeton, NJ) were used to quantify exposures (AUC0−t) and half-life (t1/2).

human D2R long isoform [10] = molecular target: T2, human D2R long isoform; experiment: DiscoverX PathHunter β-arrestin recruitment assay, D2R
[11] = antagonist mode, EC80 dopamine (1 μM), normalized to spiperone

T1 sequence (P35462 whole entry, canonical isoform): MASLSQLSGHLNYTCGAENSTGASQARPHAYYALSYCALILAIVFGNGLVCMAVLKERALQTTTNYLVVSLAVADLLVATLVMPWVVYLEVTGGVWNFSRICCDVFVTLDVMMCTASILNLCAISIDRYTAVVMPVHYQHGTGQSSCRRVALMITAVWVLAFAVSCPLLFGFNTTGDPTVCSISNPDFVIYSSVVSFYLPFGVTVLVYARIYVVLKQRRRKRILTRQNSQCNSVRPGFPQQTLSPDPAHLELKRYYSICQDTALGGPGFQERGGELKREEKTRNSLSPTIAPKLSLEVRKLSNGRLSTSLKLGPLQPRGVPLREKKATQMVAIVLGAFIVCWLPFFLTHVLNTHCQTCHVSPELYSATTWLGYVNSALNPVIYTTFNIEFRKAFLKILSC
T2 sequence (P14416 whole entry, canonical isoform): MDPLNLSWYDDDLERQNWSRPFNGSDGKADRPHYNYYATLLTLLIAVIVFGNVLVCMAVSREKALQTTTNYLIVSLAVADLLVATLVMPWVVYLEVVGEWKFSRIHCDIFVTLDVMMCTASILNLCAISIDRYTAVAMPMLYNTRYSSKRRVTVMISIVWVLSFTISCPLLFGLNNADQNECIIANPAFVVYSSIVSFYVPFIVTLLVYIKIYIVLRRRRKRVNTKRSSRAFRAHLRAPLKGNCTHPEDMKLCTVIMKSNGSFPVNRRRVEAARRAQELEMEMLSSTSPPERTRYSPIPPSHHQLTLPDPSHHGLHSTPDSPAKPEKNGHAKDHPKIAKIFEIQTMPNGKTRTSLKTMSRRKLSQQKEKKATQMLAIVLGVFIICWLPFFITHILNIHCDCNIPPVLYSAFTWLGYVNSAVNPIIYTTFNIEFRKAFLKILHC
T5 sequence (P21728 whole entry): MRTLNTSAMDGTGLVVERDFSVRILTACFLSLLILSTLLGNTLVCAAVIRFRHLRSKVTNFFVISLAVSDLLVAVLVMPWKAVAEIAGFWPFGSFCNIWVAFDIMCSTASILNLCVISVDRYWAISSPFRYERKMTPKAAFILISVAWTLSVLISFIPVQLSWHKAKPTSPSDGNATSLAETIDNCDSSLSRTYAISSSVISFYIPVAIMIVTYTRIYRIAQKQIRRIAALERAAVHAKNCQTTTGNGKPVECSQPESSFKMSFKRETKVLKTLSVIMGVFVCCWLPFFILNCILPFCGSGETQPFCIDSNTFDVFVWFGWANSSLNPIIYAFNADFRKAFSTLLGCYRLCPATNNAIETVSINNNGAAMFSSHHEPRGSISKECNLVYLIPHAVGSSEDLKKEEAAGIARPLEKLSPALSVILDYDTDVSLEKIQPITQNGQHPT
T4 sequence (P21918 whole entry): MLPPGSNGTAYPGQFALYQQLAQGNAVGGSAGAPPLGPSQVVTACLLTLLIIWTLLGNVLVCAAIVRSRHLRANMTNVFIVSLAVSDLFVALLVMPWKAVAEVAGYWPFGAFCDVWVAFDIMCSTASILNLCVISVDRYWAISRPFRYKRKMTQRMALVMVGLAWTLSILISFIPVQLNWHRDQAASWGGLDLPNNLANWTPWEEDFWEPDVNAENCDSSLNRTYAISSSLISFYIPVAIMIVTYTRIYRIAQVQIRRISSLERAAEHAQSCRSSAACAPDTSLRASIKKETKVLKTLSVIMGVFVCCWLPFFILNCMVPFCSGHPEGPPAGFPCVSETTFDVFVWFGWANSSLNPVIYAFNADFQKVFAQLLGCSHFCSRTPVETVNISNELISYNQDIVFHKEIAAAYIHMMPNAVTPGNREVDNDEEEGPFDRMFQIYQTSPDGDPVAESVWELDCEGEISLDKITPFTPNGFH

For `Cc1cccc(NC(=O)CN2CCC(c3ccccn3)CC2)c1` [Compound 1, reference compound], the EC50 (human D3R [1]; agonist mode) is listed as greater than 100000 nM, the IC50 (human D3R [1]; antagonist mode) is listed as greater than 100000 nM and the “D2R Ant (%)” value (human D2R long isoform [2]) is listed as 94.8 ± 2.8%. For the same molecule, the “D4R Emax (%)” value (human D4R [3]) was 22.5 ± 4.0% and the “D4R Ant. (%)” value (human D4R [3]) was 81.7 ± 2.7%.
`Cc1cccc(NC(=O)CN2CCC(c3ccccc3)CC2)c1` [Compound 5] showed a half-life [4] of 1.99 ± 2.82 min, an EC50 (human D4R [5]) of 7.54 ± 2.21 nM and an IC50 (human D4R [5]) of 42.4 ± 10.6 nM. The “D4R Ant. (%)” value (human D4R [5]) was 47 ± 1%, the Emax (human D4R [5]) was 42 ± 8% and the “D2R Ant (%)” value (human D2R long isoform [2]) was 99.7 ± 0.3%. For the same molecule, the “D4R Emax (%)” value (human D4R [3]) was 14 ± 0.3%, the “D4R Ant. (%)” value (human D4R [3]) was 93% and 93.3 ± 1.8% and the half-life [6] was 10.8 ± 0.57 min.
With `Cc1cccc(-n2cc(CN3CCC(c4ccccc4)CC3)nn2)c1` [Compound 14, 4-Phenyl-1-((1-(m-tolyl)-1H-1,2,3-triazol-4-yl)methyl)-piperidine] the IC50 (human D3R [7]) was 6300 ± 2100 nM, the “D3R Ant. (%)” value (human D3R [7]; [11]) was 81.6 ±0.3% and the inhibition at 10 µM (D5) was 16%. For the same molecule, the EC50 (human D4R [8]) was greater than 100000 nM, the “D4R average activity at the highest tested dose” value (human D4R [8]; agonist mode, at 100 μM (Emax ND)) was “ND (12% at 100 μM)” and the “D4R Ant. (%)” value (human D4R [8]; [11]) was 93.3 ± 5.9%. For the same molecule, the inhibition at 10 µM (D1) was 20.2%, the half-life [4] was 13.4 ± 0.44 min and the EC50 (human D4R [5]) was 44.5 ± 17.4 nM. The IC50 (human D4R [5]) was 84.6 ± 15.6 nM, the “D4R Ant. (%)” value (human D4R [5]) was 63 ± 2% and the Emax (human D4R [5]) was 30 ± 5%. For the same molecule, the Kp ([9]; Sprague-Dawley, brain and plasma, ip, 5 mg/kg, AUC brain/plasma, read-out: brain: Plasma ratio) was 0.76, the half-life ([9]; Sprague-Dawley, brain, ip, 5 mg/kg, brain, read-out: half-life (h) brain (converted)) was 0.4 h and the half-life ([9]; Sprague-Dawley, plasma and brain, ip, 5 mg/kg, tissue not specified, read-out: half-life (converted)) was no more than 0.4 h. It also gave a half-life ([9]; Sprague-Dawley, plasma, ip, 5 mg/kg, plasma, read-out: half-life (h) plasma (converted)) of 0.37 h, a Tmax ([9]; Sprague-Dawley, brain, read-out: Tmax (h) brain) of 0.25 h and an AUC ([9]; Sprague-Dawley, plasma) of 1.56 ± 0.2 µM·h. For the same molecule, the Cmax ([9]; Sprague-Dawley, plasma) was 2890 ± 570 nM, the Tmax ([9]; Sprague-Dawley, plasma, read-out: Tmax (h) plasma) was 0.25 h and the AUC brain ([9]; brain) was 1.19 ± 0.10 nmol·h/g. The Cmax brain ([9]; brain, 5 mg/kg) was 2.16 ± 0.21 nmol/g, the “peak in vivo brain concentrations expected” value ([9]; from brain Cmax) was “greater than 2.8 μM” and the IC50 (human D2R long isoform [10]) was 6090 ± 1340 nM. For the same molecule, the “D2R Ant (%)” value (human D2R long isoform [10]; [11]) was 112 ± 3% and the half-life [6] was 63.3 ± 2.98 min.
